# Measured values taken from patent publication US6214859A, “Ethylamine derivatives” (Fujimoto Brothers Co., Ltd., priority 1997, dated 2001).
# Experiments:
# mice = assay: Toxicity test in mice in the single administration; type: in vivo, mouse; settings: 50 mg/kg s.c., two weeks
# Description: After the compounds of Examples 3, 25, 27 and 28 were administered subcutanously to mice, general symptoms of the mice were observed every day for two weeks.
# [1] = system: noradrenaline release, locus coeruleus; assay: Release of biogenic amines from brain tissue: noradrenaline, locus coeruleus; type: in vivo, Wistar rats
# [2] = system: dopamine release, substantia nigra; assay: Release of biogenic amines from brain tissue: dopamine, substantia nigra; type: in vivo, Wistar rats
# serotonin release, raphe = assay: Release of biogenic amines from brain tissue: serotonin, raphe; type: in vivo, Wistar rats
# [3] = system: dopamine release, tuberculum olfactorium; assay: Release of biogenic amines from brain tissue: dopamine, tuberculum olfactorium; type: in vivo, Wistar rats
# [4] = system: dopamine release, striatum; assay: Release of biogenic amines from brain tissue: dopamine, striatum; type: in vivo, Wistar rats
# [5] = system: rats reduced learning ability by tetrabenazine; assay: Conditioned avoidance task in the shuttle box (tetrabenazine-treated rats); type: in vivo, rat; settings: tetrabenazine 1 mg/kg s.c., significance and direction
# Summary of the method: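 Male and female rats (200–220 g) were trained in a shuttle box (light/buzzer conditioned stimulus, 100 trials/day for 5 days). Tetrabenazine 1 mg/kg s.c. was given 1 h before testing, with compound at 1, 2, 2.5 or 5 mg/kg s.c. given together with tetrabenazine. CARs, EFs and IRs were counted automatically and analysed by multi-way ANOVA.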
structure (smiles),measurement,setting,value
"CCCNC(CCC)Cc1ccc2ccccc2c1.Cl (stereo not drawn) [Compound No. 3, 1-(2-Naphthyl)-2-propylaminopentane Hydrochloride]",survival,mice,all the mice survived
same,"Release of noradrenaline, locus coeruleus",[1]; 0.25 mg/kg s.c.,"4.4 ± 0.10 nmol/g tissue, for 20 min"
same,"Release of noradrenaline, locus coeruleus","[1]; 1.00 mg/kg s.c., Hydrochloride","2.6 ± 0.10 nmol/g tissue, for 20 min"
same,"Release of noradrenaline, locus coeruleus",[1]; 5.00 mg/kg s.c.,"2.2 ± 0.11 nmol/g tissue, for 20 min"
same,"Release of dopamine, substantia nigra",[2]; 0.25 mg/kg s.c.,"4.9 ± 0.07 nmol/g tissue, for 20 min"
same,"Release of dopamine, substantia nigra","[2]; 1.00 mg/kg s.c., Hydrochloride","4.5 ± 0.07 nmol/g tissue, for 20 min"
same,"Release of dopamine, substantia nigra",[2]; 5.00 mg/kg s.c.,"9.0 ± 0.50 nmol/g tissue, for 20 min"
same,"Release of serotonin, raphe","serotonin release, raphe; 0.25 mg/kg s.c.","0.958 ± 0.03 nmol/g tissue, for 20 min"
same,"Release of serotonin, raphe","serotonin release, raphe; 5.00 mg/kg s.c.","1.215 ± 0.14 nmol/g tissue, for 20 min"
same,"Release of dopamine, tuberculum olfactorium",[3]; 0.25 mg/kg s.c.,"4.3 ± 0.09 nmol/g tissue, for 20 min"
same,"Release of dopamine, tuberculum olfactorium","[3]; 1.00 mg/kg s.c., Hydrochloride","5.2 ± 0.12 nmol/g tissue, for 20 min"
same,"Release of dopamine, tuberculum olfactorium",[3]; 5.00 mg/kg s.c.,"5.1 ± 0.39 nmol/g tissue, for 20 min"
same,"Release of dopamine, striatum",[4]; 0.25 mg/kg s.c.,"3.4 ± 0.03 nmol/g tissue, for 20 min"
same,"Release of dopamine, striatum","[4]; 1.00 mg/kg s.c., Hydrochloride","3.9 ± 0.12 nmol/g tissue, for 20 min"
same,"Release of dopamine, striatum",[4]; 5.00 mg/kg s.c.,"3.8 ± 0.04 nmol/g tissue, for 20 min"
same,Escape Failures (EFs),[5]; 1 mg/kg s.c.,**** .dwnarw.
same,Condition Avoidance Reflex (CARs),"[5]; 1 mg/kg s.c., Hydrochloride",**** .Arrow-up bold.
same,Condition Avoidance Reflex (CARs),[5]; 2 mg/kg s.c.,**** .Arrow-up bold.
same,Escape Failures (EFs),[5]; 2 mg/kg s.c.,**** .dwnarw.
same,Condition Avoidance Reflex (CARs),[5]; 2.5 mg/kg s.c.,**** .Arrow-up bold.
same,Escape Failures (EFs),[5]; 2.5 mg/kg s.c.,*** .dwnarw.
same,Intersignal Reactions (IRs),[5]; 2.5 mg/kg s.c.,* .dwnarw.
same,Condition Avoidance Reflex (CARs),[5]; 5 mg/kg s.c.,**** .Arrow-up bold.
same,Escape Failures (EFs),[5]; 5 mg/kg s.c.,**** .dwnarw.
